Tests used:
[1] = target: T1, recombinant human cGAS (aa147-522) (Homo sapiens, UniProt Q8N884); assay: In vitro inhibition assay of cGAS activity (ATP consumption, KinaseGlo Max); format: biochemical; settings: Table 3, read-out: cGAS Inhibition Results IC50
T1 construct: recombinant human cGAS (aa147-522); His6-SUMO (cleaved yes); made in house; host or cells: E. coli BL21/pLys
Procedure, shortened: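 De-tagged recombinant human cGAS (aa147-522, 1.5 μg/mL) was incubated 20 min at 37 °C with herring testis DNA, 6.6 μM ATP and 0.1 mM GTP in Tris pH 7.5/MgCl2 buffer plus serial compound dilutions. Remaining ATP was read by KinaseGlo Max luminescence, and IC50 was fitted from % ATP consumption versus log concentration.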

[2] = tested on: cGAS activity in Reporter THP1 cell line; assay: Cellular assay to measure cGAS activity: ISRE-Gaussia luciferase reporter THP1 cells transfected with ISD; format: cell-based; settings: Homo sapiens
Method: Cellular assay to measure cGAS activity: Reporter THP1 cell line harboring a gene encoding Gaussia Luciferase under the control of 5 tandem repeats of interferon-stimulated response elements (ISRE) fused to an ISG54 minimal promoter was used to test inhibition of cGAS activity by synthetic compounds in human cells. These cells were plated on 96-well plates at 0.3×10^6/well and incubated with serial dilutions of compounds or DMSO for 5 min, followed by transfection of 2 μg/mL of ISD (Interferon Stimulatory DNA, a 45 bp DNA oligo) or mock transfected using lipofectamine 2000 (Life Technology) method, according to manufacturer's instructions. 16 hours later, 15 μL of the media from each well was transferred to a new plate, 50 μL of solution containing 50 mM Hepes-NaOH, pH 6.5, 50 mM NaCl, 10 mM EDTA, 1 μM of coelenterazine was added to each well and luminescence was measured immediately. Fold increase in luminescence compared to mock transfection was plotted against concentrations of each compound, and IC50 is calculated using Graphpad. To evaluate the specificity of a compound, the same procedure was performed except that cells were transfected with 2 μg/mL poly(I:C) or infected with Sendai Virus (SeV) at 50 Unit/mL, which are known to activate the RIG-I-MAVS pathway. A specific inhibitory compound should inhibit interferon induction by DNA but have minimal effect on poly(I:C) or Sendai virus induced interferon reporter gene expression.
The letter codes for cGAS IC50 include: A (<2 μM); B (2-10 μM); C (>10 μM).

[3] = THP-1, Table 4, Gaussia luciferase
[4] = THP-1, untitled table after Table 4 (continuation)

T1 sequence (Q8N884 147-522): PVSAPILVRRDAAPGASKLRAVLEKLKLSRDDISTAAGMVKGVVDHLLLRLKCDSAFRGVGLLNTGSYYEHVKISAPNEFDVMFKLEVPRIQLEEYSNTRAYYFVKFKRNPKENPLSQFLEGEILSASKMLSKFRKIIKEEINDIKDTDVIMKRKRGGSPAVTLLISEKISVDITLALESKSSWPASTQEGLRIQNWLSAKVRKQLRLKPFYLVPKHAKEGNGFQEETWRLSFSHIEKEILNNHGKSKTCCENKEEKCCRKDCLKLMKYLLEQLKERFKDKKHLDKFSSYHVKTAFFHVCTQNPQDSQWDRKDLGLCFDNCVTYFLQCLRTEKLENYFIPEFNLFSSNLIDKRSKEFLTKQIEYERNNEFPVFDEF

Compound	IC50 [1] [µM]	IC50 [2, 3] [µM]	IC50 [2, 4] [µM]
COC(=O)CC[C@@H]1CCCN1c1cc(-n2ccnc2)c2ccc(Cl)c(Cl)c2n1 [I-680]	2 to 30	2 to 10	–
COC(=O)[C@@H]1[C@H](F)CCN1c1cc(-n2ccnc2)c2ccc(Cl)c(Cl)c2n1 [I-650]	2 to 30	2 to 10	–
COC(=O)C1C(C)CCN1c1cc(-n2ccnc2)c2ccc(Cl)c(Cl)c2n1 (stereo not drawn) [I-578]	2 to 30	2 to 10	–
CC(=O)N[C@H]1CCN(c2cc(-n3ccnc3)c3ccc(Cl)c(Cl)c3n2)C1 [I-764, (S)—N-(1-(7,8-dichloro-4-(1H-imidazol-1-yl)quinolin-2-yl)pyrrolidin-3-yl)acetamide]	< 2	–	> 10
O=C1OCC2CCN(c3cc(-n4ccnc4)c4ccc(Cl)c(Cl)c4n3)C12 (stereo not drawn) [I-775, 1-(7,8-dichloro-4-(1H-imidazol-1-yl)quinolin-2-yl)hexahydro-6H-furo[3,4-b]pyrrol-6-one]	< 2	–	2 to 10
O=C(O)CCOC[C@@H]1CCCN1c1cc(-c2cn[nH]c2)c2c(Cl)cc(Cl)cc2n1 [I-855]	2 to 30	–	> 10
O=C(O)COCC[C@@H]1CC[C@@H](C(=O)O)N1c1cc(-n2ccnc2)c2ccc(Cl)c(Cl)c2n1 [I-715, (2S,5S)-5-(2-(carboxymethoxy)ethyl)-1-(7,8-dichloro-4-(1H-imidazol-1-yl)quinolin-2-yl)pyrrolidine-2-carboxylic acid]	< 2	> 10	–
CC(C)(C)OC(=O)[C@@H]1[C@@H](O)CCN1c1cc(-n2ccnc2)c2ccc(Cl)c(Cl)c2n1 [I-645, tert-butyl (2S,3S)-1-(7,8-dichloro-4-(1H-imidazol-1-yl)quinolin-2-yl)-3-hydroxypyrrolidine-2-carboxylate]	2 to 30	< 2	–
O=C(O)CCC(=O)NNc1cc(-n2ccnc2)c2ccc(Cl)c(Cl)c2n1 [I-759]	< 2	–	> 10
O=C(O)c1cccc(OC[C@@H]2CCCN2c2cc(-n3ccnc3)c3ccc(Cl)c(Cl)c3n2)c1 [I-735, (S)-3-((1-(7,8-dichloro-4-(1H-imidazol-1-yl)quinolin-2-yl)pyrrolidin-2-yl)methoxy)benzoic acid]	< 2	2 to 10	–
O=C(O)C1CC(OC[C@@H]2CCCN2c2cc(-n3ccnc3)c3ccc(Cl)c(Cl)c3n2)C1 (stereo partly drawn) [I-723]	< 2	2 to 10	–
C[C@@H]1CN(c2cc(-n3ccnc3)c3ccc(Cl)c(Cl)c3n2)[C@H](C(=O)O)[C@H]1O [I-778]	2 to 30	–	> 10
COC(=O)[C@@H]1[C@@H](F)CCN1c1cc(-n2ccnc2)c2ccc(Cl)c(Cl)c2n1 [I-649, methyl (2R,3S)-1-(7,8-dichloro-4-(1H-imidazol-1-yl)quinolin-2-yl)-3-fluoropyrrolidine-2-carboxylate]	2 to 30	2 to 10	–
OCCCOCC[C@@H]1CCCN1c1cc(-n2ccnc2)c2ccc(Cl)c(Cl)c2n1 [I-678]	< 2	2 to 10	–
O=C(O)COC[C@@H]1C[C@H](F)CN1c1cc(-n2ccnc2)c2ccc(Cl)c(Cl)c2n1 [I-706]	< 2	< 2	–

Further lines, results first:

IC50 [1] [µM]	IC50 [2, 3] [µM]	IC50 [2, 4] [µM]	Compound
< 2	> 10	–	O=C(O)COC[C@H](O)[C@@H]1CCCN1c1cc(-n2ccnc2)c2ccc(Cl)c(Cl)c2n1 [I-726, 2-((R)-2-((S)-1-(7,8-dichloro-4-(1H-imidazol-1-yl)quinolin-2-yl)pyrrolidin-2-yl)-2-hydroxyethoxy)acetic acid]
< 2	–	2 to 10	CC(OCCC(=O)O)c1cccc(-c2cc(-n3ccnc3)c3ccc(Cl)c(Cl)c3n2)c1 (stereo not drawn) [I-880]
< 2	< 2	–	CC(COC[C@@H]1CCCN1c1cc(-n2ccnc2)c2ccc(Cl)c(Cl)c2n1)C(=O)O (stereo partly drawn) [I-719]
< 2	–	2 to 10	O=C(O)CCCCNc1cc(-n2ccnc2)c2ccc(Cl)c(Cl)c2n1 [I-835]
< 2	< 2	–	O=C(O)/C=C/C[C@@H]1CCCN1c1cc(-n2ccnc2)c2ccc(Cl)c(Cl)c2n1 [I-685]
< 2	–	2 to 10	O=C(O)CCOCC1CCCCN(c2cc(-n3ccnc3)c3ccc(Cl)c(Cl)c3n2)C1 (stereo not drawn) [I-866]
< 2	–	> 10	N#CNC(=O)COC[C@@H]1CCCN1c1cc(-n2ccnc2)c2ccc(Cl)c(Cl)c2n1 [I-762]
< 2	< 2	–	O=C(O)c1ccccc1OC[C@@H]1CCCN1c1cc(-n2ccnc2)c2ccc(Cl)c(Cl)c2n1 [I-733]
< 2	< 2	–	O=C(OC(C(F)(F)F)C(F)(F)F)[C@@H]1[C@@H](O)CCN1c1cc(-n2ccnc2)c2ccc(Cl)c(Cl)c2n1 [I-663]
